According to patent publication US20110160249A1, “5-LIPOXYGENASE-ACTIVATING PROTEIN INHIBITOR” (priority 2008, published 2011):

Experiments:
[1] = Thermodynamic Aqueous Solubility by HPLC; type: physicochemical; conditions: water, 25° C., 24 hours
Procedure: Aqueous solubility was determined by suspending sufficient compound in water to give a maximum final concentration of ≧10 mg·ml^−1 of the parent free-form of the compound. The suspension was equilibrated at 25° C. for 24 hours then the pH was measured. The suspension was then filtered through a glass fibre C filter into a 96 well plate. The filtrate was then diluted by a factor of 101. Quantitation was by HPLC with reference to a standard solution of approximately 0.1 mg·ml^−1 in DMSO. Different volumes of the standard, diluted and undiluted sample solutions were injected. The solubility was calculated using the peak areas determined by integration of the peak found at the same retention time as the principal peak in the standard injection.
Analysis was performed on an Agilent HP1100 series system equipped with a diode array detector and using ChemStation software vB.02.01-SR1.

[2] = system: LTB4 in Human Whole Blood; experiment: Human blood LTB4 inhibition assay; type: cell-based; conditions: mean of 8 tests
Procedure: A non-limiting example of such a human blood LTB4 inhibition assay is as follows: Blood was drawn from consenting, human volunteers into heparinized tubes and 125 μL aliquots added to wells containing 2.5 μL 50% dimethylsulfoxide (vehicle) or 2.5 μL drug in 50% dimethylsulfoxide. Samples were incubated for 15 minutes at 37° C. 2 μL calcium ionophore […] (from a 50 mM dimethylsulfoxide stock diluted just prior to the assay in Flanks balanced salt solution (Invitrogen)) to 1.25 mM) was added, solutions mixed and incubated for 30 minutes at 37° C. Samples were centrifuged at 1,000 rpm (−200×g) for 10 minutes at 4° C., plasma removed and a 1:100 dilution assayed for LTB4 concentration using ELISA (Assay Designs). Drug concentrations to achieve 50% inhibition (IC50's) of vehicle LTB4 were determined by nonlinear regression (Graphpad Prism) of % inhibition versus log drug is concentration.

CYP 2C9 = target: T1, CYP 2C9 (Homo sapiens, UniProt P11712); experiment: Extracellular Cytochrome P450 inhibition, 2C9; type: in vitro ADME; conditions: diclofenac 4′-hydroxylation
T1 construct: from tissue
T1 sequence (P11712 whole entry): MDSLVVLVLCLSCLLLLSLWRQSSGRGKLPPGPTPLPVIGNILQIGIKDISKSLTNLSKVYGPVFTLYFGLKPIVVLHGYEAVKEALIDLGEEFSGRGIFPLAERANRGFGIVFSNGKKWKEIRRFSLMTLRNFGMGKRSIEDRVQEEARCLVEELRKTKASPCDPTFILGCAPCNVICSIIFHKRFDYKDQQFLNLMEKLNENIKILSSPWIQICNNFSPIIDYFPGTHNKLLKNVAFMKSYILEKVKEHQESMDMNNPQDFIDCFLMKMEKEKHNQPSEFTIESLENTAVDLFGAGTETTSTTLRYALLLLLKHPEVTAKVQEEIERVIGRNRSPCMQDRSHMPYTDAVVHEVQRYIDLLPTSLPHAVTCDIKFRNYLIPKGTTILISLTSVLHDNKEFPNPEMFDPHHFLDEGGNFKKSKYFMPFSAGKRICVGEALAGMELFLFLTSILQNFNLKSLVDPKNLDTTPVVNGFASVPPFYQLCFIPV

CYP 2D6 = target: T2, CYP 2D6 (Homo sapiens, UniProt P10635); experiment: Extracellular Cytochrome P450 inhibition, 2D6; type: in vitro ADME; conditions: dextromethorphan O-demethylation
T2 construct: microsomes were incubated test substrates, which were known to be metabolized by CYP enzymes, with or without Compound 2; from tissue
T2 sequence (P10635 whole entry): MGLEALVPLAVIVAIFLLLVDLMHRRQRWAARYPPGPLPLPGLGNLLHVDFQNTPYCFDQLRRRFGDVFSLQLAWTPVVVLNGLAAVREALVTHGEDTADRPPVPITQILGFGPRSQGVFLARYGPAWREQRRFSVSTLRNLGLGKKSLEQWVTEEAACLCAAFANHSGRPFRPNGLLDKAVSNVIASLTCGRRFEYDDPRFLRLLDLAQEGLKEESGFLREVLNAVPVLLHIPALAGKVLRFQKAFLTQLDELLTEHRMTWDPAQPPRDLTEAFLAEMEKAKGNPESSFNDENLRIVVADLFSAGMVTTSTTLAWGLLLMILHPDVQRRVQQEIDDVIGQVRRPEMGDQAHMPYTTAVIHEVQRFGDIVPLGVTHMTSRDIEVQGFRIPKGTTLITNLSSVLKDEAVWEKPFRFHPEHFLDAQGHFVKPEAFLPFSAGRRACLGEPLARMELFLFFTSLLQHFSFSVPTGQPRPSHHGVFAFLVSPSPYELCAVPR

[3] = Single dose kinetics in beagle dogs; type: in vivo; conditions: female, dog, plasma, Fasted
CYP 1A2 = CYP 1A2 (Homo sapiens, UniProt P05177); experiment: Extracellular Cytochrome P450 inhibition, 1A2
Sequence of CYP 1A2 (P05177 whole entry): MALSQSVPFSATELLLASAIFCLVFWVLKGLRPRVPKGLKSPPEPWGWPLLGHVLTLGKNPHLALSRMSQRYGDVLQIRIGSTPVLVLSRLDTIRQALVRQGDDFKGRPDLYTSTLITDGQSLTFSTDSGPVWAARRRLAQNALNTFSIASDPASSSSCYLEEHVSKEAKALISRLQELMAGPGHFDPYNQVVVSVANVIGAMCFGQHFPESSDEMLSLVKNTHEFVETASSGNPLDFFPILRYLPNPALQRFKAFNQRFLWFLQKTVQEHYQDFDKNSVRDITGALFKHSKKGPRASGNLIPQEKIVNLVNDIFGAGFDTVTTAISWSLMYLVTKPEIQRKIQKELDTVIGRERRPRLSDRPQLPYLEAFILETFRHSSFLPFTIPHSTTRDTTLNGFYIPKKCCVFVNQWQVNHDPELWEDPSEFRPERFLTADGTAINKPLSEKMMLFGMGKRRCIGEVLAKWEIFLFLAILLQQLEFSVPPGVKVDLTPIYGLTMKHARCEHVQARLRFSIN
Procedure: Aliquots of this mixture to (89 μL) were delivered to each well of a 96-well polypropylene plate which contained an aliquot of inhibitor (1 μL). Final solvent concentrations were 1% (v/v) or less. Incubations were commenced with the addition of 10 μL β-NADPH (10 mM stock) to a final volume of 100 μL. […] Samples were centrifuged, and supernatant was transferred for LC-MS analysis.

[4] = pKa and log P of the sodium salt; type: physicochemical
[5] = Liquid formulations (oral solutions/suspensions); type: physicochemical
Procedure: Values of pH reported were estimated based on pH indicating strips. […] Accordingly, provided in certain embodiments herein were formulations having a pH above about 9, above about 10 or of about 10. In certain embodiments, the formulation was buffered at a pH of about 10. All formulations prepared were sonicated for about 10 minutes.

[6] = system: production of LTB4 after ionophore stimulation in washed human leukocytes; experiment: LTB4 inhibition in washed human leukocytes; type: cell-based; conditions: Leukocyte, mean of 4 tests
[7] = IV, 4:1 PEG400:Water, 0.67 mg/kg

- Concentration of filtrate (as mg/mL of free base) [1]: greater than 10 mg/mL
- pH of unfiltered saturated solution [1]: above 9
- IC90 [2]: 1.31 µM
- IC50 (CYP 2C9): > 50 µM
- IC50 (CYP 2D6): > 50 µM
- AUC(0-inf) [3, 7]: 17600 ng·h/mL
- Cmax [3, 7]: 12000 ng/mL
- Tmax [3, 7]: 1.02 min
- bioavailability [3, 7]: 100%
- clearance ([3]; IV, 4:1 PEG400:Water, 0.67 mg/kg, read-out: CLp): 0.6 mL/min/kg
- Vd ([3]; IV, 4:1 PEG400:Water, 0.67 mg/kg, read-out: VdSS): 0.2 L/kg
- Cmax ([3]; Oral, 0.5% Methylcellulose, 5 mg/kg): 12400 ng/mL
- IC50 (CYP 1A2): > 40 µM
- pKa [4]: 3.45
- Results (liquid formulation) ([5]; 0.010M sodium carbonate buffer, 1% v/v Lutrol and 0.05% splenda, pH 10, ~10 mg/mL): Clear solution
- Results (liquid formulation) ([5]; 0.010M sodium carbonate buffer, 2% v/v ethanol and 0.05% splenda, pH 10, 10 mg/mL): Clear solution
- Results (liquid formulation) ([5]; 0.010M sodium carbonate buffer, 5% v/v Ethanol and 0.05% splenda, pH 10, ~10 mg/mL): Some undissolved
- Results (liquid formulation) ([5]; 0.010M sodium carbonate buffer, 5% v/v Simple syrup, pH 10, 10 mg/mL): Some undissolved
- Results (liquid formulation) ([5]; 0.010M sodium carbonate buffer, pH 10, 10 mg/mL): Clear solution
- Results (liquid formulation) ([5]; Vehicle 0.5% Methylcellulose, 3.33 mg/mL): Suspension
- IC50 [6]: 0.00044 µM
Compound: CCOc1ccc(-c2ccc(Cn3c(CC(C)(C)C(=O)[O-])c(SC(C)(C)C)c4cc(OCc5ccc(C)cn5)ccc43)cc2)cn1.[Na+] [Compound 2, sodium 3-[3-(tert-butylsulfanyl)-1-[4-(6-ethoxy-pyridin-3-yl)benzyl]-5-(5-methyl-pyridin-2-yl-methoxy)-1H-indol-2-yl]-2,2-dimethylpropionate]
